How the values were obtained:
[1] = system: C57BL/6J mice; test: Testosterone-induced hair loss mouse model, hair growth; assay type: in vivo; conditions: FIG. 5
Description: The hair on the back of each of 6-week-old mice (C57BL/6J) was epilated using an animal epilator (Philips) and hair removal cream (Veet), after which testosterone was dissolved in a mixed solution of propylene glycol and ethanol (3:7 (v:v)) and applied every day at a concentration of 30 μg/ml, and thus an environment similar to that of human hair loss was made.
In the present experiment, the individual test groups were as follows (testosterone was applied to the skin in all cases). • (1) A control group (non-treated group); • (2) A group treated with testosterone; • (3) A group treated with testosterone and then subjected to skin application with the nanoliposome-microbubble conjugate of Example 1; • (4) A group treated with testosterone and then subjected to oral administration with a commercially available finasteride solution; • (5) A group treated with testosterone and then subjected to skin application with a commercially available finasteride solution; • (6) A group treated with testosterone and then subjected to skin application with the nanoliposome of Comparative Example 1; and • (7) A group subjected to skin application with the nanoliposome-microbubble conjugate of Example 1.
A nanoliposome-microbubble conjugate (HTP) configured such that the nanoliposome and the microbubble were conjugated and dispersed at a ratio of 2:1 was used. 200 μl thereof, having a total finasteride content of 1 μg, was applied on the entire epilated back of the mice using a plastic spatula, and after 3 min, was exposed to ultrasound using a medical sonicator. Here, the nanoliposome-microbubble conjugate was applied five times at an interval of one day. Under the same conditions, the total finasteride content was matched in the group treated with the commercially available finasteride solution in lieu of the solution of Example 1 or Comparative Example 1. […]

[2] = system: DPCs; test: Cell viability, WST-1 assay, testosterone-induced apoptosis; assay type: cell-based; conditions: 200 μM testosterone, every 24 hr for 4 days, DPCs compared to 3T3 fibroblasts, FIG. 4 left
Description: Cell viability was evaluated through WST-1 assay (EZ-cytox Cell Viability Assay Kit). DPCs and 3T3 fibroblasts were cultured at a density of 1×10^4/well in a 96-well plate for 24 hr. Here, the culture medium was replaced with a new medium containing 200 μM testosterone, and after 24 hr, a WST-1 reagent was added thereto. The WST-1 reagent was added in an amount of 10% of the culture broth, and after 1 hr, absorbance was measured at 460 nm and thus cell survival and proliferation were compared with a control group (non-treated group). Cell survival was measured at an interval of 24 hr for 4 days after testosterone treatment.
After treatment with the nanoliposome-microbubble conjugate (HTP) of the present invention before treatment with testosterone in the same manner, the culture medium was replaced with a new medium containing 200 μM testosterone, the subsequent procedures were conducted as above, and the state of cells was observed. A comparative group was treated with the nanoliposome-microbubble conjugate (HTP) alone.

Structure (SMILES)	hair growth after testosterone, skin application ([1]; testosterone 30 μg/ml daily, total finasteride 1 μg, applied five times at one-day interval)	hair growth after testosterone, oral administration ([1]; testosterone daily, oral dose 10 times the application dose, five times)	extent of apoptosis over time [2]	hair growth, testosterone alone ([1]; testosterone 30 μg/ml applied every day to epilated back)
CC(C)(C)NC(=O)[C@H]1CC[C@H]2[C@@H]3CC[C@H]4NC(=O)C=C[C@]4(C)[C@H]3CC[C@]12C [commercially available finasteride drug, finasteride]	hair started growing on the seventh week	hair started growing on the seventh week		
C[C@]12CC[C@H]3[C@@H](CCC4=CC(=O)CC[C@@]43C)[C@@H]1CC[C@@H]2O [testosterone]			greatly increased in DPCs compared to 3T3 cells	grew hardly any hair
